How the values were obtained:
[1] = tested on: SHR (spontaneous hypertensive) rats, stroke by MCA occlusion; test: Rotating pole or cylinder test after MCA occlusion (Example 1); format: in vivo, rat; conditions: 0.03-10 mg/kg s.c. or p.o. from two days after MCAO for 2-8 weeks; present-tense example
From the text: Male 3 months old SHR (spontaneous hypertensive) rats are used for induction of stroke by MCA occlusion. This is the preferred strain since most stroke patients are hypertensive. The animals are anesthetized with Methohexital and a small craniectomy is made above the zygmotic arch to expose the middle cerebral artery, which is occluded with a 10-0 monofilament nylon thread distal to the origin of the striatal branches. The rats are not intubated and no catheters are inserted. Following MCA occlusion a large and reproducible infarct is obtained, leading to a robust sensorimotor deficit. The animals are kept on a 6 hr light/18 h dark cycle with free access to food and water. At two days after the MCAO the rats are treated with the compound I, II, III, IV, V, VI, VII, VIII, or IX (0.03-10 mg/kg) s.c. or p.o. and a control group is given saline for 2-8 weeks. At 2, 4, 6 and 8 weeks animals are tested in the rotating pole or cylinder test
(§1) The cylinder test (modified from Schallert and Tillerson (Innovative models of CNS disease: from molecule to therapy. Clifton, N.J., Humana, 1999) is used to quantify the forelimb use for rearing on the cylinder wall. The rats are monitored as they move freely in a 20-cm-wide clear glass cylinder. Contacts made by each forepaw with the cylinder wall while rearing are scored by a blinded observer. A total of 20 contacts are recorded for each animal, and the number of impaired (left), both, and non-impaired forelimb contacts as percentage of total contacts is calculated. Baseline for rats is achieved by measuring the contacts made by each forepaw before MCAO.

[2] = tested on: sigma-1 site compared to the sigma-2 site; conditions: (+) isomers of benzomorphan opiates; cited from earlier work
[3] = hydrohalide salts, in particular the hydrochloride salt; cited from earlier work
[4] = tested on: spontaneously hypertensive rats exposed to permanent middle artery occlusion (MCAO); test: Cylinder test for asymmetric forelimb use after permanent MCAO (Example 2); format: in vivo, rat; conditions: 0.3 mg/kg; all time points measured
Experimental: as §1
Forty three spontaneously hypertensive rats were exposed to permanent middle artery occlusion (MCAO), then divided into three treatment groups. […] At the start of treatment, and at several time points during the test, the rats were assessed for their performance in the cylinder test. […] The performance of the rats in the test was assessed one day before permanent MCAO, then at 14 days, 28 days and 59 days after permanent MCAO. The rats were monitored as they moved freely in a 20 cm-wide clear glass cylinder. Contacts made by each forepaw with the cylinder wall while rearing were scored by a blinded observer. […]

[5] = tested on: spontaneously hypertensive rats exposed to permanent middle artery occlusion (MCAO); test: Rotating pole test after permanent MCAO (Example 2); format: in vivo, rat; conditions: rotating pole score 0-6
From the text: A score of 6-0 is given for each direction:
6, the animal crosses the pole with no foot slips;
5, the animal crosses the pole with a few foot slips;
4, the animal crosses the pole, slipping 50% of the footsteps;
3, the animal crosses the pole with more than 50% foot slips;
2, the animal walks a bit and then rotates around the pole;
1, the animal rotates around the pole without crossing it;
0, the animal falls off the pole.
Thirty five spontaneously hypertensive rats were exposed to permanent middle artery occlusion (MCAO), then divided into three treatment groups. Starting at two days after occlusion and continuing daily until 28 days after occlusion, SA4503 was administered s.c. in doses of 0.3 mg/kg (12 rats) or 1.0 mg/kg (12 rats). In a control group (11 rats), vehicle only was administered. At the start of treatment, and at several time points during the test, the rats were assessed for their performance in the rotating pole model. This model is described in Example 1. It requires the rats to cross a horizontally suspended rotating pole having a length of 1 m. This task measures the sensory-motor performance of the animals. The animals' behaviour was recorded using a video camera and later analyzed and scored by a trained technician. The scoring ranges from 0 to 6, with 0 being very poor performance and 6 reflecting the performance of a healthy animal (without MCAO).

[6] = tested on: cultured rat retinal neurons; conditions: cited from earlier work
[7] = tested on: rat primary neuronal cultures; conditions: cited from earlier work
[8] = tested on: NMDA-induced toxicity and seizures; conditions: in vivo models; cited from earlier work
[9] = tested on: ischemia in gerbils; conditions: cited from earlier work

## COc1ccc(CN2CCN(Cc3ccccc3)CC2)c(O)c1OC [IX, N-benzyl-N′-(2-hydroxy-3,4-dimethoxybenzyl)-piperazine]
[1]
  performance in the rotating pole test or the cylinder test versus control: perform better than the group 1 control animals

## CN(CCc1ccc(Cl)c(Cl)c1)[C@H]1CCCC[C@H]1N1CCCC1 [VIII, (−)-(1S, 2R)-N-[2-(3,4-dichlorophenyl)ethyl]-N-methyl-2-(pyrrolidin-1-yl) cyclohexylamine]
[1]
  performance in the rotating pole test or the cylinder test versus control: perform better than the group 1 control animals

## (+)SKF 10,047
[2]
  affinity for the sigma-1 site compared to the sigma-2 site: nearly two orders of magnitude higher affinity for the sigma-1 site

## O=C(OCCN1CCOCC1)C1(c2ccccc2)CCCCC1 [III, 1-phenylcyclohexane-1-carboxylic acid-2-morpholinoethyl ester]
[1]
  performance in the rotating pole test or the cylinder test versus control: perform better than the group 1 control animals

## Fc1ccc(-n2cc(CCCCN3CCC4(CC3)OCc3ccccc34)c3ccccc32)cc1 [siramesine, 1′-[4-[1-(4-fluorophenyl)-1H-indol-3-yl]-1-butyl] spiro [isobenzofuran-1(3H),4′-piperidine]]
[1]
  performance in the rotating pole test or the cylinder test versus control: perform better than the group 1 control animals
[3]
  bioavailability: good bioavailability

## COc1ccc(CCN2CCN(CCCc3ccccc3)CC2)cc1OC [SA4503, 1-(3,4-dimethoxyphenethyl)-4-(3-phenylpropyl) piperazine]
[1]
  performance in the rotating pole test or the cylinder test versus control: perform better than the group 1 control animals
[4]
  asymmetry of paw usage: reduced to pre-MCAO levels
[5]; 0.3 mg/kg s.c.
  total average score at day 30: 5.2
[5]; 0.3 mg/kg s.c. daily from day 2 to day 28 after MCAO
  Average Increase in Score at Day 30 (SEM): 3.5 (SEM 0.4) (p < 0.05)
[5]; 1.0 mg/kg s.c. daily from day 2 to day 28 after MCAO
  Average Increase in Score at Day 30 (SEM): 3.67 (SEM 0.48) (p < 0.05)
[6]
  activity against glutamate neurotoxicity: active
[7]
  suppression of hypoxia/hypoglycemia-induced neurotoxicity: significantly suppress

## O=C(CCCN1CCC(O)(c2ccc(Cl)cc2)CC1)c1ccc(F)cc1 [haloperidol]
[8]
  protective effects against NMDA-induced toxicity and seizures: consistent with affording protective effects

## CCC(C/C=C/c1ccccc1)(c1ccccc1)N(C)CC1CC1 (single isomer, unassigned; (+)) [VI, (+)-N-(cyclopropylmethyl)-N-[1-ethyl-1,4-diphenyl-3(E)-butenyl]-N-methylamine]
[1]
  performance in the rotating pole test or the cylinder test versus control: perform better than the group 1 control animals

## COCCCC/C(=N\OCCN)c1ccc(C(F)(F)F)cc1 [fluvoxamine, 5-methoxy-4′-(trifluoromethyl)valerophenone O-(2-aminoethyl)oxime]
[1]
  performance in the rotating pole test or the cylinder test versus control: perform better than the group 1 control animals

## CC(C)=CCN1CCC2(C)c3cc(O)ccc3CC1C2C (single isomer, unassigned; (+)) [(+)pentazocine]
[2]
  affinity for the sigma-1 site compared to the sigma-2 site: nearly two orders of magnitude higher affinity for the sigma-1 site

## OCCN1CCN(CCCN2c3ccccc3C=Cc3ccccc32)CC1 [opipramol]
[9]
  protection against ischemia: protect against ischemia

## CCN(CC)CCOC(=O)C1(c2ccccc2)CCCC1 [caramiphen]
[8]
  protective effects against NMDA-induced toxicity and seizures: consistent with affording protective effects

## O=C(NC1CCN(Cc2ccccc2)CC1)c1ccc(I)cc1 [II, N-(N-benzylpiperidin-4-yl)-4-iodobenzaminde]
[1]
  performance in the rotating pole test or the cylinder test versus control: perform better than the group 1 control animals

## OC(CCCN1CCN(c2ncc(F)cn2)CC1)c1ccc(F)cc1 (stereo not shown) [BMY-14802]
[8]
  protective effects against NMDA-induced toxicity and seizures: consistent with affording protective effects

## COc1cccc2c1CCC(=O)N2CCCN1CCN(c2cccc(Cl)c2)CC1 [VII, 1-[3-[4-(3-chlorophenyl)piperazin-1-yl]propyl]-5-methoxy-1,2,3,4-tetrahydroquinolin-2-one]
[1]
  performance in the rotating pole test or the cylinder test versus control: perform better than the group 1 control animals

From patent US20050020483A1, “Sigma ligands for neuronal regeneration and functional recovery” (priority 2003, published 2005)
